Tests used:
[1] = target: T1, Adenosine receptor A3 (Homo sapiens, UniProt P0DMS8); assay type: cell membranes, CHO-K1, Membrane;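 note: radioligand binding assay with AB-MECA serving as the labeled ligand; in other assays of this panel Not Active means under 50% inhibition at 10 µM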
T1 sequence (P0DMS8 whole entry): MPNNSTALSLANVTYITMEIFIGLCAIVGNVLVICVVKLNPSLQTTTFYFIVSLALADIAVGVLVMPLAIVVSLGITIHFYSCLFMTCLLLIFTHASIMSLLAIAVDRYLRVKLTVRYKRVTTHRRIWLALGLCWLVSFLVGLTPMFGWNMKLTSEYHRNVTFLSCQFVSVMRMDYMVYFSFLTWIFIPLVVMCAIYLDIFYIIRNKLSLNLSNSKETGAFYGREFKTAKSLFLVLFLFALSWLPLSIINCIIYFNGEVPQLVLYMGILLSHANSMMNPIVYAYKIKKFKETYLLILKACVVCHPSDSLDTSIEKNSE

[2] = target: T2, D(4) dopamine receptor (Homo sapiens, UniProt P21917); experiment: DRUGMATRIX: Dopamine D4.2 radioligand binding (ligand: [3H] Spiperone); assay type: cell membranes, CHO-K1, Membrane; settings: cho-k1; Not Active = under 50% inhibition at 10 µM
T2 sequence (P21917 whole entry): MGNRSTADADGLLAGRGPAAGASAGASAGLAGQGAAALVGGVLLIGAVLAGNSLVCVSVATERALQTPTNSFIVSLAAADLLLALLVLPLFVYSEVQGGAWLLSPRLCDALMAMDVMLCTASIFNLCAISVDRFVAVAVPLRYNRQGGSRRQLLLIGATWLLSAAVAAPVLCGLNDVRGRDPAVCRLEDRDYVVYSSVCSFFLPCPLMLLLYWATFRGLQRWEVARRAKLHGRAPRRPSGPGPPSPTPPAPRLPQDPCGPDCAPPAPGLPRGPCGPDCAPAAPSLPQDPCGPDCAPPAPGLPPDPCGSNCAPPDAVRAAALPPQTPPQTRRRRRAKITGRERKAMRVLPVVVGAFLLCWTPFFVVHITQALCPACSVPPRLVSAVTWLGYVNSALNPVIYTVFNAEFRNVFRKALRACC

[3] = DRUGMATRIX: Glutamate, Kainate radioligand binding (ligand: [3H] Kainic acid); assay type: cell membranes, Rattus norvegicus, Wistar, Brain, Membrane; settings: Not Active = under 50% inhibition at 10 µM
[4] = target: T3, Alpha-2A adrenergic receptor (Homo sapiens, UniProt P08913); assay type: cell membranes, Sf9, Membrane; settings: sf9; note: in other assays of this panel Not Active means under 50% inhibition at 10 µM
T3 sequence (P08913 whole entry): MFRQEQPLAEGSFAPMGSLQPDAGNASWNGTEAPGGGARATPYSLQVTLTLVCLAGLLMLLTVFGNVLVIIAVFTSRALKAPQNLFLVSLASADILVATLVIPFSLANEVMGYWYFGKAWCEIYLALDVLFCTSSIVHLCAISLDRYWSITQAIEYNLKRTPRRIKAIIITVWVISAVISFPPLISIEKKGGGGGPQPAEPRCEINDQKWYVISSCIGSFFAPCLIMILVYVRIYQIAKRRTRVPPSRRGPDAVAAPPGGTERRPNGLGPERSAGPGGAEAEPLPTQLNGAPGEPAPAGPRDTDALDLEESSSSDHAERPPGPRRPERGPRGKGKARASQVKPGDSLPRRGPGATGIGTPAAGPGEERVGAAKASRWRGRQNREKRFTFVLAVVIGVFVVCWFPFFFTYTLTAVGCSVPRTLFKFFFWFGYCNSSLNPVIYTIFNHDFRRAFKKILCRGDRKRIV

[5] = target: Glycine receptor (Rattus norvegicus, UniProt P22771+P24524+P07727+P20781); assay type: cell membranes, Wistar, Spinal cord, Membrane; note: in other assays of this panel Not Active means under 50% inhibition at 10 µM
[6] = target: Histamine H2 receptor (Homo sapiens, UniProt P25021); assay type: cell membranes, CHO-K1, Membrane; settings: cho-k1; note: in other assays of this panel Not Active means under 50% inhibition at 10 µM
[7] = target: Vasopressin V1a receptor (Homo sapiens, UniProt P37288); assay type: cell membranes, Membrane; settings: hek293; note: in other assays of this panel Not Active means under 50% inhibition at 10 µM
[8] = DRUGMATRIX: Leukotriene, BLT (LTB4) radioligand binding (ligand: [3H]LTB4); assay type: cell membranes, Membrane; settings: u-937; Not Active = under 50% inhibition at 10 µM
[9] = target: T4, Leukotriene C4 synthase (Cavia porcellus, UniProt A6XA80); experiment: biochemical; assay type: tissue-based, Lung
T4 sequence (A6XA80 whole entry): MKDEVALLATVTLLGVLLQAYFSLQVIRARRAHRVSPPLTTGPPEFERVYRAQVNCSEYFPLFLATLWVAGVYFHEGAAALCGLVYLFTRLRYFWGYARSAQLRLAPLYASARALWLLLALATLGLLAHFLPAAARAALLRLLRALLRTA

[10] = target: cGMP-specific 3',5'-cyclic phosphodiesterase (Homo sapiens, UniProt O76074); experiment: DRUGMATRIX: Phosphodiesterase PDE5 enzyme inhibition (substrate: [3H]cGMP + cGMP); assay type: tissue-based, Platelet; settings: platelet; Not Active = under 50% inhibition at 10 µM

Chain of Histamine H2 receptor (P25021 whole entry): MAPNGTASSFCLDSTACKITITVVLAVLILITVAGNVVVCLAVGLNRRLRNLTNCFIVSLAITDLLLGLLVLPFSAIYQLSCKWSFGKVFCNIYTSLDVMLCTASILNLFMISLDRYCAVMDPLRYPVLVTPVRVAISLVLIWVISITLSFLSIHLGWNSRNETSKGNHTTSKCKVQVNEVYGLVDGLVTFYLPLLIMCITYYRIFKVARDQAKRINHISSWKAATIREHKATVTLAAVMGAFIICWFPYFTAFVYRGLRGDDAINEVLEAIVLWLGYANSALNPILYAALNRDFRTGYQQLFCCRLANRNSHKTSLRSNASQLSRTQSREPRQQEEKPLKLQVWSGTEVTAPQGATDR
Chain of Vasopressin V1a receptor (P37288 whole entry): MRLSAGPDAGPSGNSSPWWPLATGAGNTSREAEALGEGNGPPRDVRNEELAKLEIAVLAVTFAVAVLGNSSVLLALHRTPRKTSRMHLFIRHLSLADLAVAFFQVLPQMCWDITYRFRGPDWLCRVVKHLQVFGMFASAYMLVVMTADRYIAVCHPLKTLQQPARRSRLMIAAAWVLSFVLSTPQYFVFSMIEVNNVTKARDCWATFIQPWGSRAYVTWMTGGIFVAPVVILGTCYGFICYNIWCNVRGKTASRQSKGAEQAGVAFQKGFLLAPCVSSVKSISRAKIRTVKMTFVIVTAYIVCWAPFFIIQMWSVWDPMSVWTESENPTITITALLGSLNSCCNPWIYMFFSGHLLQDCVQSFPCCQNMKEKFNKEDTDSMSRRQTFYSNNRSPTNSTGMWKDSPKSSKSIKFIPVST

SMILES	IC50 ([1]; cho-k1)	IC50 [2]	IC50 [3]	Ki [3]	IC50 [4]	IC50 [5]	IC50 [6]	IC50 [7]	IC50 [8]	Ki [8]	IC50 [9]	IC50 [10]	IC50 ([1]; read-out: IC50) [nM]	Ki ([1]; read-out: Ki) [nM]
CC(C)(C)NC(=O)[C@@H]1CN(Cc2cccnc2)CCN1C[C@@H](O)C[C@@H](Cc1ccccc1)C(=O)N[C@H]1c2ccccc2C[C@H]1O.O	Not Active	Not Active	Not Active	Not Active	Not Active	Not Active	Not Active	Not Active	Not Active	Not Active	Not Active	Not Active		
Nc1ccc(S(N)(=O)=O)cc1 [SULFANILAMIDE]	Not Active	Not Active	Not Active	Not Active	Not Active	Not Active	Not Active	Not Active	Not Active	Not Active	Not Active	Not Active		
Cc1ncc([N+](=O)[O-])n1CC(C)O (stereo unspecified) [SECNIDAZOLE]	Not Active	Not Active	Not Active	Not Active	Not Active	Not Active	Not Active	Not Active	Not Active	Not Active	Not Active	Not Active		
Oc1c(I)cc(I)c2cccnc12 [IODOQUINOL]		Not Active	Not Active	Not Active	Not Active	Not Active	Not Active	Not Active	Not Active	Not Active	Not Active	Not Active	933	527
NNC(=O)c1ccncc1 [ISONIAZID]	Not Active	Not Active	Not Active	Not Active	Not Active	Not Active	Not Active	Not Active	Not Active	Not Active	Not Active	Not Active		

— ChEMBL document CHEMBL1909046, “DrugMatrix in vitro pharmacology data”
